From patent US20220096652A1, “ACETAL-BASED CLEAVABLE LINKERS” (Synaffix B.V., priority 2019, published 2022)
“Also recorded” adds a separate entry of the source.

What was measured:
[1] = Negative control: incubation in histidine acetate buffer pH 6 without Papain, UPLC-MS; assay type: physicochemical; conditions: pH 6, Papain NO, 37° C., 18 h (10, 18) or 67 h (26); for Ratio DXd / s.m.: based on peak area (UV 254 nm)
Procedure: To an Eppendorf vial containing histidine acetate buffer (110 μL, 20 mM, pH 6) was added a solution of 10 in DMF (3 μL, 10 mM).
To an Eppendorf vial containing histidine acetate buffer (110 μL, 20 mM, pH 6) was added a solution of 18 in DMF (3 μL, 10 mM).
To an Eppendorf vial containing histidine acetate buffer (110 μL, 20 mM, pH 6) was added a solution of 26 in DMF (3 μL, 10 mM). […] The intermediate 26-Int was not observed.

[2] = Incubation in 1:1 PBS (pH 7.4) / DMF, UPLC-MS; assay type: physicochemical; conditions: pH 7.4, Papain NO, 1:1 PBS/DMF, overnight; based on peak area (UV 254 nm)
Procedure: To a 1:1 mixture of PBS (pH 7.4) and DMF (199 μL) was added a 10 mM solution of 10 in DMF (1 μL). The mixture was incubated overnight and analyzed by UPLC-MS. Intermediate 10-Int and DXd were not observed.
To a 1:1 mixture of PBS (pH 7.4) and DMF (199 μL) was added a 10 mM solution of 18 in DMF (1 μL). The mixture was incubated overnight and analysed by UPLC-MS. Intermediate 18-Int and DXd were not observed.
To a 1:1 mixture of PBS (pH 7.4) and DMF (199 μL) was added a 10 mM solution of 26 in DMF (1 μL). The mixture was incubated overnight and analysed by UPLC-MS. Intermediate 26-Int and DXd were not observed.

Papain = target: T1, Papain (Carica papaya, UniProt P00784); assay: Papain digestion of linker-drug in histidine acetate buffer, UPLC-MS; assay type: in vitro ADME; conditions: pH 6, Papain YES, 37° C., 19 h (10, 18) or 67 h (26)
T1 sequence (P00784 134-345): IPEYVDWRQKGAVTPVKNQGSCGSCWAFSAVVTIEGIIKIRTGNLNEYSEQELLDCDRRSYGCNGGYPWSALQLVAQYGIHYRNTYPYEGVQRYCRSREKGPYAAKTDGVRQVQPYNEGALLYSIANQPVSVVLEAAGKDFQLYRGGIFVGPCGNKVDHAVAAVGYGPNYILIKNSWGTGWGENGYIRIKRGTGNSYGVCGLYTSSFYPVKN
Procedure: To an Eppendorf vial containing histidine acetate buffer (50 μL, 20 mM, pH 6) were added a solution of 10 in DMF (3 μL, 10 mM) and a Papain solution in histidine acetate buffer (0.5 mg/mL, 20 mM buffer, pH 6).
To an Eppendorf vial containing histidine acetate buffer (50 μL, 20 mM, pH 6) were added a solution of 18 in DMF (3 μL, 10 mM) and a Papain solution in histidine acetate buffer (0.5 mg/mL, 20 mM buffer, pH 6).
To an Eppendorf vial containing histidine acetate buffer (50 μL, 20 mM, pH 6) were added a solution of 26 in DMF (3 μL, 10 mM) and a Papain solution in histidine acetate buffer (0.5 mg/mL, 20 mM buffer, pH 6).

| SMILES | Ratio DXd / s.m. [1] | Ratio DXd / s.m. [2] | Formation of DXd (Papain) | Formation of DXd [1] |
| --- | --- | --- | --- | --- |
| CC[C@@]1(O)C(=O)OCc2c1cc1n(c2=O)Cc2c-1nc1cc(F)c(C)c3c1c2[C@@H](NC(=O)COC(C)OCc1ccc(NC(=O)[C@H](C)NC(=O)[C@@H](NC(=O)OCCOCCNC(=O)OC[C@@H]2[C@@H]4CCC#CCC[C@@H]42)C(C)C)cc1)CC3 (stereo partly shown) [Compound 18] | 0 | 0 |  |  |
| CC[C@@]1(O)C(=O)OCc2c1cc1n(c2=O)Cc2c-1nc1cc(F)c(C)c3c1c2[C@@H](NC(=O)COCOCc1ccc(NC(=O)[C@H](C)NC(=O)[C@@H](NC(=O)OCCOCCNC(=O)OC[C@@H]2[C@@H]4CCC#CCC[C@@H]42)C(C)C)cc1)CC3 [Compound 10] | 0 | 0 | only a very small amount of material was transformed into DXd; also recorded: + / − |  |
| CC[C@@]1(O)C(=O)OCc2c1cc1n(c2=O)Cc2c-1nc1cc(F)c(C)c3c1c2[C@@H](NC(=O)COC1(OCc2ccc(NC(=O)[C@H](C)NC(=O)[C@@H](NC(=O)OCCOCCNC(=O)OC[C@@H]4[C@@H]5CCC#CCC[C@@H]54)C(C)C)cc2)CCCCC1)CC3 [Compound 26] |  | 0 |  | partial conversion of 26 into DXd; also recorded: + / − |
